US11202776B2, “Treatment of gastroparesis with triazaspiro[4.5]decanone” (Millennium Pharmaceuticals, Inc., priority 2017, dated 2021)
Counter-ions that a name gives are not always drawn. Like-named read-outs stand apart in the source and are kept apart here.

Tests used:
[1] = Phase I single-ascending dose (SAD) pharmacokinetics incl. food effect, plasma concentration of the Compound; assay type: in vivo, human; conditions: for half-life / AUC(0-inf) / AUC(0-t) / Cmax / Tmax: human, plasma
Procedure: (§1) A phase I randomized, double-blind, placebo-controlled, adaptive-design, single-ascending dose (SAD) and multiple-ascending dose (MAD) study was conducted in healthy human subjects to evaluate the safety, tolerability, pharmacokinetics (PK), pharmacodynamics (PD), food effect, and optimal oral dose of 3-((1-cyclohexyl-4-oxo-8-(4-oxo-4-phenylbutyl)-1,3,8-triazaspiro[4.5]decan-3-yl)methyl)benzoic acid maleate (hereinafter, “the Maleate Salt”). The SAD phase included an arm to evaluate food effect on the PK of the Maleate Salt. The SAD phase also evaluated the effect of the Maleate Salt on ECG parameters, including an assessment of QT-interval changes using exposure-response analysis.
(§2) The Maleate Salt was formulated in the study as immediate-release, hard gelatin capsules for oral administration. Each capsule contained 5 mg or 25 mg of the Maleate Salt, as well as microcrystalline cellulose NF (AVICEL® PH-102), sodium starch glycolate NF (EXPLOTAB®), and magnesium stearate NF, all filled into a size 3 hard gelatin capsule. A matching placebo containing the same amount of microcrystalline cellulose NF in place of the Maleate Salt was used in the study. The Maleate Salt capsules and matching placebo capsules were packaged in high-density polyethylene (HDPE) bottles with polypropylene caps and stored at controlled conditions per the USP.
(§3) A total of 54 subjects received at least 1 dose of the Maleate Salt, ranging from 5 mg to the maximum single PO dose of 300 mg. Six subjects received a maximum single PO dose of 300 mg and 5 subjects received a total of 900 mg of the Maleate Salt over 5-day period (100 mg BID for 4 days with single 100 mg on Day 5).
The SAD phase had 7 cohorts dosed at 5 mg (cohort 1), 10 mg (cohort 2), 25 mg (cohort 3), 50 mg (cohort 4), 100 mg (cohort 5), 200 mg (cohort 6), and 300 mg (cohort 7) of the Maleate Salt. In each cohort, there were 6 active- and 2 placebo-treated subjects. Subjects were administered the Maleate Salt in the fasting state with 1 exception: subjects in the 25 mg cohort (cohort 3) received the Maleate Salt while fasting and again after a high-fat breakfast to determine food effect on PK.
Mean plasma concentration-time profiles for 3-((1-cyclohexyl-4-oxo-8-(4-oxo-4-phenylbutyl)-1,3,8-triazaspiro[4.5]decan-3-yl)methyl)benzoic acid (hereinafter, “the Compound”) following a single PO dose of the Maleate Salt are shown in FIG. 1.
In evaluating food effect on the PK of the Maleate Salt, subjects on Day 1 in cohort 3 were administered a single dose of the Maleate Salt at 25 mg or placebo in the fasted state. On Day 3, the same subjects received an identical dose 30 minutes after consumption of a standardized, high-fat, high-calorie breakfast.

[2] = Phase I multiple-ascending dose (MAD) pharmacokinetics, BID Days 1-4 and single morning dose Day 5; assay type: in vivo, human; conditions: for Tlast / Cmax / Tmax / half-life / AUC / concentration at 12 h / concentration at 24 h: fasting; for Cav, ss / Cmin / Tmin / AI: steady state; for AI: Day 5, mean; for Cmax / Tmax / half-life / AUC / concentration at 12 h / concentration at 24 h: human, plasma; for Cmax / Tmax / half-life / AUC: po; for AUC: read-out: AUC12; for concentration at 12 h / concentration at 24 h: read-out: Clast
Procedure: as §1, §2, §3
The MAD phase had 2 cohorts dosed at 50 and 100 mg of the Maleate Salt. In each cohort, there were 6 active- and 2 placebo-treated subjects. The Maleate Salt was administered to fasting subjects BID (morning and evening) on Days 1 through 4 and as a single morning dose on Day 5.
On Day 1, mean T1/2 was approximately 2 h for both 50 and 100 mg BID doses. On Day 5, mean T1/2 was 11.0 and 6.2 h following 50 and 100 mg BID doses, respectively. For T1/2 determination, the plasma samples for Day 1 were only collected to 12 h, whereas the plasma samples for Day 5 were collected to 24 h.

D2 receptor = target: T1, D2 receptor (Homo sapiens, UniProt P14416); assay: Clinical PD: serum prolactin concentration as marker of pharmacologic activity (D2 receptor target engagement); assay type: in vivo
T1 construct: from tissue; host or cells: healthy human subjects in vivo (lactotroph cells of the anterior pituitary gland)
Procedure: as §1
In the same phase I study, serum prolactin concentrations were evaluated as a marker of pharmacologic activity (D2 receptor target engagement). Prolactin is primarily secreted from lactotroph cells of the anterior pituitary gland, and the release of prolactin from these cells is under inhibitory control by DA. Fitzgerald and Dinan, J. Psychopharmacol. 2008, 22, 12-19.
The increases were substantial compared to placebo. The prolactin response was maximal at the 10 mg dose of the Maleate Salt in the SAD phase.

[3] = po, 5 mg, single PO dose 5 mg, fasted, healthy subjects
[4] = po, 10 mg, single PO dose 10 mg, fasted, healthy subjects
[5] = po, 25 mg, single PO dose 25 mg, fasted, healthy subjects
[6] = po, 25 mg, single PO dose 25 mg, fed (high-fat breakfast), healthy subjects
[7] = po, 50 mg, single PO dose 50 mg, fasted, healthy subjects
[8] = po, 100 mg, single PO dose 100 mg, fasted, healthy subjects
[9] = po, 200 mg, single PO dose 200 mg, fasted, healthy subjects
[10] = po, 300 mg, single PO dose 300 mg, fasted, healthy subjects

T1 sequence (P14416 whole entry): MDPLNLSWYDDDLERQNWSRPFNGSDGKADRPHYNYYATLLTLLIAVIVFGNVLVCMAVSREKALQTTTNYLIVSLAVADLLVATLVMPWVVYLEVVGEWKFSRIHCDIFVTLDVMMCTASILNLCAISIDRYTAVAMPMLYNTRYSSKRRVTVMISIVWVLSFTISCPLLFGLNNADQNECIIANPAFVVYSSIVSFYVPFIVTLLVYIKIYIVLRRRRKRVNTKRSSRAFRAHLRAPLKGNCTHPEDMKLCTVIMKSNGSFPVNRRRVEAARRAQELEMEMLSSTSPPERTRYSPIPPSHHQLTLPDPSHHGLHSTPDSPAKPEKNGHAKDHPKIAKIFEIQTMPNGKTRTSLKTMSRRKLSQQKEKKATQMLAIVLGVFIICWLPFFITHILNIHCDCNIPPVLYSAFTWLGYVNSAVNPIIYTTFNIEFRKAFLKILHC

Compound: O=C(O)c1cccc(CN2CN(C3CCCCC3)C3(CCN(CCCC(=O)c4ccccc4)CC3)C2=O)c1 [the Maleate Salt, 3-((1-cyclohexyl-4-oxo-8-(4-oxo-4-phenylbutyl)-1,3,8-triazaspiro[4.5]decan-3-yl)methyl)benzoic acid maleate]
- Food effect on Tmax ([1]; 25 mg single dose, high-fat meal prior to dosing vs fasted): did not alter Tmax
- Exposure versus dose administered ([1]; SAD phase, fasted conditions, 5-300 mg): approximately proportional to the dose administered
- half-life ([1]; oral, across all cohorts in the SAD phase, read-out: Arithmetic mean T1/2 in fasted subjects (converted)): ~4 h
- AUC(0-inf) [1, 3]: 4.5 ng·h/mL
- AUC(0-t) [1, 3]: 4.3 ng·h/mL
- Cmax [1, 3]: 2.1 ng/mL
- half-life ([1]; po, 5 mg, single PO dose 5 mg, fasted, healthy subjects, read-out: T1/2 (converted)): ~1.6 h
- Tmax ([1]; po, 5 mg, single PO dose 5 mg, fasted, healthy subjects, read-out: Tmax): 0.83 h
- AUC(0-inf) [1, 4]: 13.1 ng·h/mL
- AUC(0-t) [1, 4]: 12.9 ng·h/mL
- Cmax [1, 4]: 6.2 ng/mL
- half-life ([1]; po, 10 mg, single PO dose 10 mg, fasted, healthy subjects, read-out: T1/2 (converted)): ~1.6 h
- Tmax ([1]; po, 10 mg, single PO dose 10 mg, fasted, healthy subjects, read-out: Tmax): 1.21 h
- AUC(0-inf) [1, 5]: 30.4 ng·h/mL
- AUC(0-t) [1, 5]: 30.5 ng·h/mL
- Cmax [1, 5]: 10.5 ng/mL
- half-life ([1]; po, 25 mg, single PO dose 25 mg, fasted, healthy subjects, read-out: T1/2 (converted)): 6 h
- Tmax ([1]; po, 25 mg, single PO dose 25 mg, fasted, healthy subjects, read-out: Tmax): 1.8 h
- AUC(0-inf) [1, 6]: 17.2 ng·h/mL
- AUC(0-t) [1, 6]: 17.6 ng·h/mL
- Cmax [1, 6]: 6.7 ng/mL
- half-life ([1]; po, 25 mg, single PO dose 25 mg, fed (high-fat breakfast), healthy subjects, read-out: T1/2 (converted)): 7 h
- Tmax ([1]; po, 25 mg, single PO dose 25 mg, fed (high-fat breakfast), healthy subjects, read-out: Tmax): 2.2 h
- AUC(0-inf) [1, 7]: 56.7 ng·h/mL
- AUC(0-t) [1, 7]: 53.2 ng·h/mL
- Cmax [1, 7]: 22 ng/mL
- half-life ([1]; po, 50 mg, single PO dose 50 mg, fasted, healthy subjects, read-out: T1/2 (converted)): 3.1 h
- Tmax ([1]; po, 50 mg, single PO dose 50 mg, fasted, healthy subjects, read-out: Tmax): 1.04 h
- AUC(0-inf) [1, 8]: 180 ng·h/mL
- AUC(0-t) [1, 8]: 104 ng·h/mL
- Cmax [1, 8]: 48.3 ng/mL
- half-life ([1]; po, 100 mg, single PO dose 100 mg, fasted, healthy subjects, read-out: T1/2 (converted)): 5.4 h
- Tmax ([1]; po, 100 mg, single PO dose 100 mg, fasted, healthy subjects, read-out: Tmax): 1.78 h
- AUC(0-inf) [1, 9]: 242 ng·h/mL
- AUC(0-t) [1, 9]: 240 ng·h/mL
- Cmax [1, 9]: 106 ng/mL
- half-life ([1]; po, 200 mg, single PO dose 200 mg, fasted, healthy subjects, read-out: T1/2 (converted)): 5.4 h
- Tmax ([1]; po, 200 mg, single PO dose 200 mg, fasted, healthy subjects, read-out: Tmax): 1.24 h
- AUC(0-inf) [1, 10]: 446 ng·h/mL
- AUC(0-t) [1, 10]: 421 ng·h/mL
- Cmax [1, 10]: 192 ng/mL
- half-life ([1]; po, 300 mg, single PO dose 300 mg, fasted, healthy subjects, read-out: T1/2 (converted)): 5.1 h
- Tmax ([1]; po, 300 mg, single PO dose 300 mg, fasted, healthy subjects, read-out: Tmax): 1.88 h
- half-life ([1]; po, 25 to 300 mg dose levels, single PO dose, read-out: Arithmetic mean T1/2 in fasted subjects (converted)): 3.1 to 6 h
- Tmax ([1]; po, SAD phase, single PO doses, read-out: Median Tmax): ~1.1 h
- Tlast ([2]; 50 mg BID PO, Day 1): 12.0 h
- Tlast ([2]; 50 mg BID PO, Day 5): 24.0 h
- Cav, ss ([2]; 50 mg BID PO, Day 5): 4.84 ng/mL
- Cmin ([2]; 50 mg BID PO, Day 5): 0.32 ng/mL
- Tmin ([2]; 50 mg BID PO, Day 5): 8.0 h
- AI ([2]; 50 mg BID PO): 1.89
- Tlast ([2]; 100 mg BID PO, Day 1): 12.0 h
- Tlast ([2]; 100 mg BID PO, Day 5): 24.0 h
- Cav, ss ([2]; 100 mg BID PO, Day 5): 16.71 ng/mL
- Cmin ([2]; 100 mg BID PO, Day 5): 0.65 ng/mL
- Tmin ([2]; 100 mg BID PO, Day 5): 4.8 h
- AI ([2]; 100 mg BID PO): 1.38
- Accumulation for AUC12 ([2]; 50 or 100 mg BID dosing): less than 30%
- Accumulation for Cmax ([2]; 50 or 100 mg BID dosing): less than 40%
- Cmax ([2]; 50 mg, 50 mg BID PO, Day 1): 23.3 ng/mL
- Tmax ([2]; 50 mg, 50 mg BID PO, Day 1): 1.55 h
- half-life ([2]; 50 mg, 50 mg BID PO, Day 1 (samples collected to 12 h)): ~2 h
- AUC ([2]; 50 mg, 50 mg BID PO, Day 1): 53.6 ng·h/mL
- Cmax ([2]; 50 mg, 50 mg BID PO, Day 5): 31.2 ng/mL
- Tmax ([2]; 50 mg, 50 mg BID PO, Day 5): 1.17 h
- half-life ([2]; 50 mg, 50 mg BID PO, Day 5 (samples collected to 24 h)): 11 h
- AUC ([2]; 50 mg, 50 mg BID PO, Day 5): 58.1 ng·h/mL
- Cmax ([2]; 100 mg, 100 mg BID PO, Day 1): 71.5 ng/mL
- Tmax ([2]; 100 mg, 100 mg BID PO, Day 1): 1.03 h
- half-life ([2]; 100 mg, 100 mg BID PO, Day 1 (samples collected to 12 h)): ~2 h
- AUC ([2]; 100 mg, 100 mg BID PO, Day 1): 152 ng·h/mL
- Cmax ([2]; 100 mg, 100 mg BID PO, Day 5): 71.6 ng/mL
- Tmax ([2]; 100 mg, 100 mg BID PO, Day 5): 1.53 h
- half-life ([2]; 100 mg, 100 mg BID PO, Day 5 (samples collected to 24 h)): 6.2 h
- AUC ([2]; 100 mg, 100 mg BID PO, Day 5): 200 ng·h/mL
- concentration at 12 h ([2]; 50 mg BID PO, Day 1): 0.2 ng/mL
- concentration at 24 h ([2]; 50 mg BID PO, Day 5): 0.18 ng/mL
- concentration at 12 h ([2]; 100 mg BID PO, Day 1): 0.42 ng/mL
- concentration at 24 h ([2]; 100 mg BID PO, Day 5): 0.28 ng/mL
- Accumulation in serum prolactin (D2 receptor; MAD phase, after BID dosing for 5 days): little if any accumulation
- Dose at which the prolactin response was maximal (D2 receptor; SAD phase): 10 mg
- Median serum prolactin Tmax (D2 receptor; across all 48 single-dose administrations): approximately 1.1 h
- Increases in serum prolactin compared to placebo (D2 receptor; following oral administration): substantial
- Serum prolactin concentration (D2 receptor; following oral administration, SAD and MAD phases): increased rapidly

Compound: O=C(O)c1cccc(CN2CN(C3CCCCC3)C3(CCN(CCCC(=O)c4ccccc4)CC3)C2=O)c1 [Compound 1, 3-((1-cyclohexyl-4-oxo-8-(4-oxo-4-phenylbutyl)-1,3,8-triazaspiro[4.5]decan-3-yl)methyl)benzoic acid]
- Plasma concentration-time profile ([1]; single PO dose, over 24 h): rapid absorption and rapid elimination
- Plasma concentration-time profile ([2]; MAD phase, 50 or 100 mg BID): rapid absorption and rapid elimination
